Source: ChEMBL document CHEMBL4507268 (2021)

Columns and labels:
Conditions in all cases: Compound concentration 1.0 uM
[1] = target: T1, Interleukin-1 receptor-associated kinase 4 (Homo sapiens) (UniProt Q9NWZ3)
T1 sequence (whole entry): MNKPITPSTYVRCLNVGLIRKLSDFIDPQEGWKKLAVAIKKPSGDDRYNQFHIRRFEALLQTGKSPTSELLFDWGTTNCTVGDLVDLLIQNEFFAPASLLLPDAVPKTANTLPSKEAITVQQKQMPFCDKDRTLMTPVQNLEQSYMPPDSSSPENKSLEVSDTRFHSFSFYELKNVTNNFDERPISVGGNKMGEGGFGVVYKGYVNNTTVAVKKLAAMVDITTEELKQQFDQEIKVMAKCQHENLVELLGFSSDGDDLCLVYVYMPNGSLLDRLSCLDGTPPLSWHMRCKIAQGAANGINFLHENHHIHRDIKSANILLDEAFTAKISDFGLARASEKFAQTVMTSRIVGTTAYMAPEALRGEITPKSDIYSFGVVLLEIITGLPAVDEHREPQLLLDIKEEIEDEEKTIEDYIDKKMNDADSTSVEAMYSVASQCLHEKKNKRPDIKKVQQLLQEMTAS

[2] = target: Tyrosine-protein kinase JAK2 (Homo sapiens) (UniProt O60674)
[3] = target: T2, Muscle, skeletal receptor tyrosine-protein kinase (Homo sapiens) (UniProt O15146)
T2 sequence (whole entry): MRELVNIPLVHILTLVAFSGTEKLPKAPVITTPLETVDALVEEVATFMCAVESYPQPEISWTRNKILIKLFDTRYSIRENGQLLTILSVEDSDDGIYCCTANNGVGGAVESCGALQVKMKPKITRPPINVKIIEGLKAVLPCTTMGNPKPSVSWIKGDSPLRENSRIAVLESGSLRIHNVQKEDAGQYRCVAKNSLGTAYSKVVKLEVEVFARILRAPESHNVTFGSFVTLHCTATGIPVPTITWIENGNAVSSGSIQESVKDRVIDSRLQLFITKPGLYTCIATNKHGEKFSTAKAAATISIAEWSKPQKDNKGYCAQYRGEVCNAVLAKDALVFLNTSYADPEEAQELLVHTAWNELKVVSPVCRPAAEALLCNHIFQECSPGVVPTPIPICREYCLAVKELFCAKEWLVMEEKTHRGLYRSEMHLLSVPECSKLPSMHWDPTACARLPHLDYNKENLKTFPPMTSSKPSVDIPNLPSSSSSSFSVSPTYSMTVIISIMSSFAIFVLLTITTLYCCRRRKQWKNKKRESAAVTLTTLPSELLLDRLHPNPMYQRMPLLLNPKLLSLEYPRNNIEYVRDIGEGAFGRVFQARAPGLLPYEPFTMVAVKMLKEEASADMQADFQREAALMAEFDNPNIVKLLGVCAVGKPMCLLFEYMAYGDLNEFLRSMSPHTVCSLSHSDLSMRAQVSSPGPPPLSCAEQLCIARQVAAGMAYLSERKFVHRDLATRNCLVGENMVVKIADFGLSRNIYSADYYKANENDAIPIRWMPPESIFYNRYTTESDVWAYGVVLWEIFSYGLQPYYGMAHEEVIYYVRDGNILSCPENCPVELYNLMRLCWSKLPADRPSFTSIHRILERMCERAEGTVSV

[4] = target: Serine/threonine-protein kinase PAK 3 (Homo sapiens) (UniProt O75914)
[5] = target: Protein kinase C theta type (Homo sapiens) (UniProt Q04759)
[6] = target: T3, Serine/threonine-protein kinase PLK4 (Homo sapiens) (UniProt O00444)
T3 sequence (whole entry): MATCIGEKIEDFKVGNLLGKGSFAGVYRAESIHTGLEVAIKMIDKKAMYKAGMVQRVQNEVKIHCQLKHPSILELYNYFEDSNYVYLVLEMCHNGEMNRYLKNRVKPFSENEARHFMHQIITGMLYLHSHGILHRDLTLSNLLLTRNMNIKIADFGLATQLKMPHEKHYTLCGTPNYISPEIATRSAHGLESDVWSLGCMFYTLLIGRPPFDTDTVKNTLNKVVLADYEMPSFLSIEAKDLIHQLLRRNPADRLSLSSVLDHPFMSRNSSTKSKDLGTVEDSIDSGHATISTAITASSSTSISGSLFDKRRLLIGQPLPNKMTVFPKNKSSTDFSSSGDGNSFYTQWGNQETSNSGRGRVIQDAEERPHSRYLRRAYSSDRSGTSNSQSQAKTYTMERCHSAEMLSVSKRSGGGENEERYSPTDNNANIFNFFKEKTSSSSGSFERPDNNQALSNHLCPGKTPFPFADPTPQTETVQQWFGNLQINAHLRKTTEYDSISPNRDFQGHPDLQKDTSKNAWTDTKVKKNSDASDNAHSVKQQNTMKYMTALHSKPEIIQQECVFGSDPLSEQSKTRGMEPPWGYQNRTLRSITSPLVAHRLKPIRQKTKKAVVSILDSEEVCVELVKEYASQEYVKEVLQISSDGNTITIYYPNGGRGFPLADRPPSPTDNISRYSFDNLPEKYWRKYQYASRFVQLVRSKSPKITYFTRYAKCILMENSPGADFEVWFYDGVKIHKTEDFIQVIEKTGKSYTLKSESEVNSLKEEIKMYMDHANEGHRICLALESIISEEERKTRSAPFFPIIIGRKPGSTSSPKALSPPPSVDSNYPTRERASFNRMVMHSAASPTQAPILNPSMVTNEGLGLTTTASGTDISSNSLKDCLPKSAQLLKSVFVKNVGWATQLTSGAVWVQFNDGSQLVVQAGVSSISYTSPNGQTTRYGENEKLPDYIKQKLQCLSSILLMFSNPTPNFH

[7] = target: T4, Tyrosine-protein kinase TXK (Homo sapiens) (UniProt P42681)
T4 sequence (whole entry): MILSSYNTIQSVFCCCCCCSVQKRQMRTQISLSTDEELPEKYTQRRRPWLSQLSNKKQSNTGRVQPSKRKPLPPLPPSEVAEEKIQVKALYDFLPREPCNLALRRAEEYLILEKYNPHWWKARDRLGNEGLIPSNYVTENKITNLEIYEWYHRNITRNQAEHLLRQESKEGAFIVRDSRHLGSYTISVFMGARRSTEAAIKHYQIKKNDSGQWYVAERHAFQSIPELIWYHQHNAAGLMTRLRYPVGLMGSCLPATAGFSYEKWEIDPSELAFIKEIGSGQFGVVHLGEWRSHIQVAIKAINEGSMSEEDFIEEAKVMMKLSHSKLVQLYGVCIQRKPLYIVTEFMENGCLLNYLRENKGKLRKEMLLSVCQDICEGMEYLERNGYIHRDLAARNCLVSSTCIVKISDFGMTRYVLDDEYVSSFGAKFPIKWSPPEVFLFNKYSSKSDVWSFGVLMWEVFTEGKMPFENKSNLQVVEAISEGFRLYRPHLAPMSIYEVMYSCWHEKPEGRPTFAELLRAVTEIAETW

Measured: % residual kinase activity

Tyrosine-protein kinase JAK2 (Homo sapiens), sequence (O60674 whole entry): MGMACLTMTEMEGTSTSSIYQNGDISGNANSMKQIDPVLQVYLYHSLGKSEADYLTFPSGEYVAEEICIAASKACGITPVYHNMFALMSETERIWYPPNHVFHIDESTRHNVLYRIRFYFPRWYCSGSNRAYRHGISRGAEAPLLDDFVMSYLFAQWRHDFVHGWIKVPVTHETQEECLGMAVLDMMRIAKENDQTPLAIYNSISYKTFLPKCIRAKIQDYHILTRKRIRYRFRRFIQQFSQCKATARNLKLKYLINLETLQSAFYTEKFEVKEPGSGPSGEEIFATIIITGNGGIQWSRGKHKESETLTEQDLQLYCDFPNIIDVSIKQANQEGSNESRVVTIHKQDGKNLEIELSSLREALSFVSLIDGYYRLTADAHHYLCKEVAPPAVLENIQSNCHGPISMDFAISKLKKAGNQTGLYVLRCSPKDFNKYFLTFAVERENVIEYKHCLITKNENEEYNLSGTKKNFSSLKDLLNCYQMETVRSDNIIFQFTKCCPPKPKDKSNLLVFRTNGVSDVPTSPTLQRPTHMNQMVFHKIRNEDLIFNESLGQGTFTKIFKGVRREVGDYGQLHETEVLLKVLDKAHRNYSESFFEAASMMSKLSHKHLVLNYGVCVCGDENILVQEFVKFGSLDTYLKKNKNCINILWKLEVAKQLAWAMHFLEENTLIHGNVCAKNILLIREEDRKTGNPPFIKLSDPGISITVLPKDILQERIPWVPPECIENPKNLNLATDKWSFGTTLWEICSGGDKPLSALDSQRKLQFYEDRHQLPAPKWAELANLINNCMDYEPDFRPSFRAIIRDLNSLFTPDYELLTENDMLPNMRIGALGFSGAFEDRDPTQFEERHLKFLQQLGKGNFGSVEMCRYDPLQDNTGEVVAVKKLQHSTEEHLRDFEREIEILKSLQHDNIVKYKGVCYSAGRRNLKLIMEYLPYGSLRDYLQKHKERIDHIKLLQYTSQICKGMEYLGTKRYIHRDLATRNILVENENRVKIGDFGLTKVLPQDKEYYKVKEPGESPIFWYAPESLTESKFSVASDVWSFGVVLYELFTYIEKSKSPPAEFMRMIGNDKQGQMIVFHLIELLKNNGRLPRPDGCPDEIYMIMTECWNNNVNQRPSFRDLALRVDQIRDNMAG
Serine/threonine-protein kinase PAK 3 (Homo sapiens), sequence (O75914 whole entry, looked up): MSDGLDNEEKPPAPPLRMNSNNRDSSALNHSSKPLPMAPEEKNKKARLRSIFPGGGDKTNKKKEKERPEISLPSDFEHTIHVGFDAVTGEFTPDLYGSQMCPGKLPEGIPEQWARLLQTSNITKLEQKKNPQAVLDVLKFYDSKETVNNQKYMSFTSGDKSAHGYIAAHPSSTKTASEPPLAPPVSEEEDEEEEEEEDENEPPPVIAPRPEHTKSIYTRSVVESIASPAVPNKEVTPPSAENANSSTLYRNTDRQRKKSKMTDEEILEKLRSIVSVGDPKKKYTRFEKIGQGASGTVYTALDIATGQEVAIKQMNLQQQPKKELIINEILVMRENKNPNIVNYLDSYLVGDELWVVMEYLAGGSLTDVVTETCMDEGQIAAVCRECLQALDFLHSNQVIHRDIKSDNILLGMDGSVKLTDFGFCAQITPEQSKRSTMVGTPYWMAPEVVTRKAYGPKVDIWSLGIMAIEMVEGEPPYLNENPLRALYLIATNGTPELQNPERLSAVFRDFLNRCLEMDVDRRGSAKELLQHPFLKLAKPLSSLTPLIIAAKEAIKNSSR
Protein kinase C theta type (Homo sapiens), sequence (Q04759 whole entry, looked up): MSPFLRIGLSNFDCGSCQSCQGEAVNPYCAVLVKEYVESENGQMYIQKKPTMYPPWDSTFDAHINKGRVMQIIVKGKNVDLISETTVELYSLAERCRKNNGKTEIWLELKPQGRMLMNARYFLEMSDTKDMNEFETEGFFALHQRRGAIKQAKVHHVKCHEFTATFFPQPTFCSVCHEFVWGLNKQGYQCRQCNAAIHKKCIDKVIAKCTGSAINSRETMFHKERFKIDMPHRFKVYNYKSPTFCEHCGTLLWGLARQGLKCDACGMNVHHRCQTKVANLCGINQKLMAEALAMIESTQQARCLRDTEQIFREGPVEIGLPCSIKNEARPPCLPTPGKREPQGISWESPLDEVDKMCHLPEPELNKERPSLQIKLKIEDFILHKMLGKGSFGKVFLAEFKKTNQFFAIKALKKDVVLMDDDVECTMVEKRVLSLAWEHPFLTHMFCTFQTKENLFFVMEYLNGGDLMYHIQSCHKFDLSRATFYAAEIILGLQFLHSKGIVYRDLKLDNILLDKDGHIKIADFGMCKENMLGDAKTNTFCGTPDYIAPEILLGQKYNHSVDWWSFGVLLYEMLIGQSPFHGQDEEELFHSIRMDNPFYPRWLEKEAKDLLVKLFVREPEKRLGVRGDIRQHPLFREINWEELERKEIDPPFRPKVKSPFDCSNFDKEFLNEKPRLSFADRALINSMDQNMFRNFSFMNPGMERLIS

CN1CCN(c2cnc3c(C4CCN(C(=O)c5ccc(OC(F)(F)F)cc5N)CC4)ncnc3c2)CC1 [BAY-885]
inactive: [1] 106% | [2] 100% | [3] 130% | [4] 106% | [5] 115% | [6] 88% | [7] 99%
